The structures appear in SMILES notation.

T1 sequence (P00746 26-253): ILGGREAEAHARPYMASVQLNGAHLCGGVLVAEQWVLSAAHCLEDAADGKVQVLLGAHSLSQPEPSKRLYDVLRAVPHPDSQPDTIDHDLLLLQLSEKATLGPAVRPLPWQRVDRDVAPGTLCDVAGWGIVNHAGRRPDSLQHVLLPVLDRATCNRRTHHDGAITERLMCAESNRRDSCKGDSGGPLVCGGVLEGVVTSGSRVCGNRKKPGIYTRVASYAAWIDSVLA

The first assay addresses T1, Human Factor D (Homo sapiens, UniProt P00746).
T1 construct: purified from human serum; purchased Complement Technology, Inc; host or cells: human serum (natural protein, not recombinant)
Put plainly: Human Factor D Assay. It counts as biochemical. Conditions: Human Factor D 80 nM, substrate Z-L-Lys-SBzl, assay of Example 3; read-out: IC50 (Stars). How it is done:
Human Factor D (purified from human serum, Complement Technology, Inc.) at 80 nM final concentration is incubated with test compound at various concentrations for 5 min at room temperature in 50 mM Tris, 1M NaCl, pH 7.5. A synthetic substrate Z-L-Lys-SBzl and DTNB (Ellman's reagent) are added to final concentrations of 100 μM each. […] IC50 values are calculated by nonlinear regression of complement Factor D reaction rates as a function of test compound concentration.
`CC(=O)c1nn(CC(=O)N2C[C@H](F)C[C@H]2C(=O)Nc2cccc(Br)n2)c2ccc(-c3ccc(C)nn3)cc12` [Compound 35, (2S,4R)-1-(2-(3-Acetyl-5-(6-methylpyridazin-3-yl)-1H-indazol-1-yl)acetyl)-N-(6-bromopyridin-2-yl)-4-fluoropyrrolidine-2-carboxamide]: the concentration for half-maximal inhibition (IC50) is below 1 µM.

For the compound `CC(=O)c1nn(CC(=O)N2[C@H](C(=O)N[C@@H](C)CC(C)C)C[C@@]3(C)C[C@@H]23)c2ccc(-c3cnc(C)nc3)cc12` [Compound 10, (1R,3S,5R)-2-(2-(3-Acetyl-5-(2-methylpyrimidin-5-yl)-1H-indazol-1-yl)acetyl)-5-methyl-N—((S)-4-methylpentan-2-yl)-2-azabicyclo[3.1.0]hexane-3-carboxamide], the IC50 was below 1 µM.

Take `CC(=O)c1nn(CC(=O)N2C[C@H](F)C[C@H]2C(=O)Oc2cccc(Br)n2)c2ccc(-c3cnc(C)nc3)cc12` [Compound 37, (2S,4R)-6-Bromopyridin-2-yl 1-(2-(3-acetyl-5-(2-methylpyrimidin-5-yl)-1H-indazol-1-yl)acetyl)-4-fluoropyrrolidine-2-carboxylate]: the IC50 fell in the range of 1 to 10 µM.

Staying with this assay, now noted: Human Factor D 80 nM, substrate Z-L-Lys-SBzl; Table 2; read-out: IC50 (Stars).
As for `CC(=O)c1nn(CC(=O)N2[C@H](C(=O)NC(C)Cc3cnccn3)C[C@@]3(C)C[C@@H]23)c2c(C)cc(-c3cnc(C)nc3)cc12` (stereo partly drawn) [Compound 188, (1R,3S,5R)-2-{2-[3-acetyl-7-methyl-5-(2-methylpyrimidin-5-yl)indazol-1-yl]acetyl}-5-methyl-N-[1-(pyrazin-2-yl)propan-2-yl]-2-azabicyclo[3.1.0]hexane-3-carboxamide], the half-inhibitory concentration (IC50) was below 1 µM.

On to `CC(=O)c1nn(CC(=O)N2[C@H](C(=O)N[C@@H](C)c3ccc4c(c3)CCCC4)C[C@@]3(C)C[C@@H]23)c2c(C)cc(-c3cnc(C)nc3)cc12` [Compound 151, (1R,3S,5R)-2-{2-[3-acetyl-7-methyl-5-(2-methylpyrimidin-5-yl)indazol-1-yl]acetyl}-5-methyl-N-[(1S)-1-(5,6,7,8-tetrahydronaphthalen-2-yl)ethyl]-2-azabicyclo[3.1.0]hexane-3-carboxamide], for which the IC50 was 1 to 10 µM.

Take `CC(=O)c1nn(CC(=O)N2[C@H](C(=O)Nc3cnc(C)c(Br)n3)C[C@@]3(C)C[C@@H]23)c2c(C)cc(-c3cnc(CO)nc3)cc12` [Compound 94, (1R,3S,5R)-2-(2-(3-acetyl-5-(2-(hydroxymethyl)pyrimidin-5-yl)-7-methyl-1H-indazol-1-yl)acetyl)-N-(6-bromo-5-methylpyrazin-2-yl)-5-methyl-2-azabicyclo[3.1.0]hexane-3-carboxamide]: the half-inhibitory concentration (IC50) is below 1 µM.

For `CC(=O)c1nn(CC(=O)N2[C@H]3CC[C@H](C3)[C@H]2C(=O)Nc2nc(C(F)(F)F)ccc2C)c2c(C)cc(-c3cnc4cc(C)nn4c3)cc12` [Compound 223, (1S,3S,4R)-2-(2-(3-acetyl-7-methyl-5-(2-methylpyrazolo[1,5-a]pyrimidin-6-yl)-1H-indazol-1-yl)acetyl)-N-(3-methyl-6-(trifluoromethyl)pyridin-2-yl)-2-azabicyclo[2.2.1]heptane-3-carboxamide], the IC50 is below 1 µM.

For the compound `CC(=O)c1cn(CC(=O)N2C[C@H]3C[C@H]3[C@H]2C(=O)Nc2nc(Br)c(F)cc2C)c2c(C)cc(-c3cnc(CO)nc3)cc12` [Compound 83, (1R,2S,5S)-3-(2-(3-acetyl-5-(2-(hydroxymethyl)pyrimidin-5-yl)-7-methyl-11H-indol-1-yl)acetyl)-N-(6-bromo-5-fluoro-3-methylpyridin-2-yl)-3-azabicyclo[3.1.0]hexane-2-carboxamide], the IC50 is below 1 µM.

Take `CC(=O)c1nn(CC(=O)N2[C@H](C(=O)N[C@H]3CCCCC3(F)F)C[C@@]3(C)C[C@@H]23)c2c(C)cc(-c3cnc(C)nc3)cc12` [Compound 149, (1R,3S,5R)-2-{2-[3-acetyl-7-methyl-5-(2-methylpyrimidin-5-yl)indazol-1-yl]acetyl}-N-[(1S)-2,2-difluorocyclohexyl]-5-methyl-2-azabicyclo[3.1.0]hexane-3-carboxamide]: the IC50 was below 1 µM.

As to `CC(=O)c1nn(CC(=O)N2[C@H](C(=O)Nc3nc(Br)ccc3C)C[C@@]3(C)C[C@@H]23)c2ccc(-c3cncc(S(N)(=O)=O)c3)cc12` [Compound 71, (1R,3S,5R)-2-(2-(3-Acetyl-5-(5-sulfamoylpyridin-3-yl)-1H-indazol-1-yl)acetyl)-N-(6-bromo-3-methylpyridin-2-yl)-5-methyl-2-azabicyclo[3.1.0]hexane-3-carboxamide], the IC50 was below 1 µM.

As to `CC(=O)c1nn(CC(=O)N2[C@H](C(=O)NC(C)Cc3cccc(F)c3)C[C@@]3(C)C[C@@H]23)c2c(C)cc(-c3cnc(C)nc3)cc12` (stereo partly drawn) [Compound 187, (1R,3S,5R)-2-{2-[3-acetyl-7-methyl-5-(2-methylpyrimidin-5-yl)indazol-1-yl]acetyl}-N-[1-(3-fluorophenyl)propan-2-yl]-5-methyl-2-azabicyclo[3.1.0]hexane-3-carboxamide], the 50% inhibitory concentration (IC50) is below 1 µM.

Regarding `CC(=O)c1cn(CC(=O)N2[C@H](C(=O)Nc3nc(Br)ccc3C)C[C@@]3(C)C[C@@H]23)c2c(C)cc(-c3cnc4cc(C)nn4c3)cc12` [Compound 198, (1R,3S,5R)-2-(2-(3-acetyl-7-methyl-5-(2-methylpyrazolo[1,5-a]pyrimidin-6-yl)-1H-indol-1-yl)acetyl)-N-(6-bromo-3-methylpyridin-2-yl)-5-methyl-2-azabicyclo[3.1.0]hexane-3-carboxamide], the IC50 was below 1 µM.

Regarding `CC(=O)c1nn(CC(=O)N2[C@H](C(=O)NCc3ccc4c(c3)CCCC4)C[C@@]3(C)C[C@@H]23)c2c(C)cc(-c3cnc(C)nc3)cc12` [Compound 150, (1R,3S,5R)-2-{2-[3-acetyl-7-methyl-5-(2-methylpyrimidin-5-yl)indazol-1-yl]acetyl}-5-methyl-N-(5,6,7,8-tetrahydronaphthalen-2-ylmethyl)-2-azabicyclo[3.1.0]hexane-3-carboxamide], the concentration for half-maximal inhibition (IC50) is below 1 µM.

For the compound `COCc1cc(-c2cnc(C)nc2)cc2c(C(C)=O)cn(CC(=O)N3[C@H](C(=O)Nc4nc(C(F)(F)F)ccc4C)C[C@@]4(C)C[C@@H]34)c12` [Compound 238, (1R,3S,5R)-2-(2-(3-acetyl-7-(methoxymethyl)5-(2-methylpyrimidin-5-yl)-1H-indol-1-yl)acetyl)-5-methyl-N-(3-methyl-6-(trifluoromethyl)pyridin-2-yl)-2-azabicyclo[3.1.0]hexane-3-carboxamide], the IC50 was below 1 µM.

As to `CC(=O)c1cn(CC(=O)N2[C@H](C(=O)Nc3nc(C(F)(F)F)ccc3C)C[C@@]3(C)C[C@@H]23)c2c(C)cc(-c3cnc4c(O)c(C)nn4c3)cc12` [Compound 231, (1R,3S,5R)-2-(2-(3-acetyl-5-(3-hydroxy-2-methylpyrazolo[1,5-a]pyrimidin-6-yl)-7-methyl-1H-indol-1-yl)acetyl)-5-methyl-N-(3-methyl-6-(trifluoromethyl)pyridin-2-yl)-2-azabicyclo[3.1.0]hexane-3-carboxamide], the IC50 is below 1 µM.

On to `Cc1ncc(-c2cc3c(C(N)=O)nn(CC(=O)N4[C@H](C(=O)Nc5nc(Br)c(F)cc5C)C[C@@]5(C)C[C@@H]45)c3c(CO)n2)cn1` [Compound 184, 1-(2-((1R,3S,5R)-3-((6-bromo-5-fluoro-3-methylpyridin-2-yl)carbamoyl)-5-methyl-2-azabicyclo[3.1.0]hexan-2-yl)-2-oxoethyl)-7-(hydroxymethyl)-5-(2-methylpyrimidin-5-yl)-1H-pyrazol[3,4-c]pyridine-3-carboxamide], for which the IC50 was below 1 µM.

On to `CC(=O)c1cn(CC(=O)N2[C@H](C(=O)Nc3nc(Br)c(F)cc3C)C[C@@]3(C)C[C@@H]23)c2c(C)cc(-c3cnc(C(C)O)nc3)cc12` (stereo partly drawn) [Compound 158], for which the 50% inhibitory concentration (IC50) was below 1 µM.

On to `CC(=O)c1nn(CC(=O)N2[C@H](C(=O)NC(C)Cc3ccco3)C[C@@]3(C)C[C@@H]23)c2c(C)cc(-c3cnc(C)nc3)cc12` (stereo partly drawn) [Compound 180, (1R,3S,5R)-2-{2-[3-acetyl-7-methyl-5-(2-methylpyrimidin-5-yl)indazol-1-yl]acetyl}-N-[1-(furan-2-yl)propan-2-yl]-5-methyl-2-azabicyclo[3.1.0]hexane-3-carboxamide], for which the half-inhibitory concentration (IC50) was below 1 µM.

Regarding `COCc1ccc(Br)nc1NC(=O)[C@@H]1C[C@@]2(C)C[C@H]2N1C(=O)Cn1cc(C(C)=O)c2cc(-c3cnc(C)nc3)cc(C)c21` [Compound 214, (1R,3S,5R)-2-(2-(3-acetyl-7-methyl-5-(2-methyl-pyrimidin-5-yl)-1H-indol-1-yl)acetyl)-N-(6-bromo-3-(methoxymethyl)pyridin-2-yl)-5-methyl-2-azabicyclo[3.1.0]hexane-3-carboxamide], the concentration for half-maximal inhibition (IC50) is below 1 µM.

In the case of `CC(=O)c1nn(CC(=O)N2C[C@H]3C[C@H]3[C@H]2C(=O)Nc2nc(Br)c(F)cc2C)c2c(C)cc(-c3cnc(CO)nc3)cc12` [Compound 76, (1R,2S,5S)-3-(2-(3-acetyl-5-(2-(hydroxymethyl)pyrimidin-5-yl)-7-methyl-11H-indazol-1-yl)acetyl)-N-(6-bromo-5-fluoro-3-methylpyridin-2-yl)-3-azabicyclo[3.1.0]hexane-2-carboxamide], the IC50 was below 1 µM.

Regarding `CC(=O)c1nn(CC(=O)N2[C@H](C(=O)N[C@H](c3ccccc3)C(F)(F)F)C[C@@]3(C)C[C@@H]23)c2c(C)cc(-c3cnc(C)nc3)cc12` [Compound 86, (1R,3S,5R)-2-{2-[3-acetyl-7-methyl-5-(2-methylpyrimidin-5-yl)indazol-1-yl]acetyl}-5-methyl-N-[(1R)-2,2,2-trifluoro-1-phenylethyl]-2-azabicyclo[3.1.0]hexane-3-carboxamide], the IC50 is below 1 µM.

Source of the values: US20230022157A1 (Achillion Pharmaceuticals, Inc., priority 2018, published 2023).
